Experimental data published in PubChem BioAssay AID248 (DTP/NCI, 2004).
“And” between values parts separate entries of the source, which are not always exact repeats. Equal entries are not always repeated. Inconclusive results and toxic doses are left out. Cut-off read from the data, not from the text of the source: active = T/C of 150% or more; inactive = T/C below 125%.

Test system: L1210 leukemia ip in BDF1 mice, survival T/C
Experiment: NCI In Vivo Anticancer Drug Screen. Data for tumor model L1210 Leukemia (intraperitoneal) in B6D2F1 (BDF1) mice
Conditions: endpoint: mean survival time, higher = longer survival
Outline: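 Transplantable tumor model; survival measured in treated vs vehicle control mice. Value = treated/control.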

[1] = dose: 100.0 mg/kg/injection, schedule: Q04DX003 (ip), vehicle: saline with Tween-80
[2] = dose: 200.0 mg/kg/injection, schedule: Q04DX003 (ip), vehicle: saline with Tween-80
[3] = dose: 400.0 mg/kg/injection, schedule: Q04DX003 (ip), vehicle: saline with Tween-80
[4] = dose: 100.0 mg/kg/injection, schedule: Q01DX001 (ip), vehicle: saline
[5] = dose: 100.0 mg/kg/injection, schedule: Q01DX009 (ip), vehicle: saline
[6] = dose: 200.0 mg/kg/injection, schedule: Q01DX001 (ip), vehicle: saline
[7] = dose: 200.0 mg/kg/injection, schedule: Q01DX009 (ip), vehicle: saline
[8] = dose: 400.0 mg/kg/injection, schedule: Q01DX001 (ip), vehicle: saline
[9] = dose: 12.5 mg/kg/injection, schedule: Q01DX009 (ip), vehicle: saline
[10] = dose: 25.0 mg/kg/injection, schedule: Q01DX009 (ip), vehicle: saline
[11] = dose: 25.0 mg/kg/injection, schedule: Q04DX003 (ip), vehicle: saline
[12] = dose: 50.0 mg/kg/injection, schedule: Q01DX009 (ip), vehicle: saline
[13] = dose: 50.0 mg/kg/injection, schedule: Q04DX003 (ip), vehicle: saline
[14] = dose: 100.0 mg/kg/injection, schedule: Q04DX003 (ip), vehicle: saline
[15] = dose: 100.0 mg/kg/injection, schedule: Q01DX001 (ip), vehicle: carboxymethylcellulose (CMC)
[16] = dose: 200.0 mg/kg/injection, schedule: Q01DX001 (ip), vehicle: carboxymethylcellulose (CMC)
[17] = dose: 400.0 mg/kg/injection, schedule: Q01DX001 (ip), vehicle: carboxymethylcellulose (CMC)
[18] = dose: 200.0 mg/kg/injection, schedule: Q04DX003 (ip), vehicle: Klucel (hydroxypropylcellulose) (HPC)
[19] = dose: 400.0 mg/kg/injection, schedule: Q04DX003 (ip), vehicle: Klucel (hydroxypropylcellulose) (HPC)
[20] = dose: 100.0 mg/kg/injection, schedule: Q04DX003 (ip), vehicle: Klucel (hydroxypropylcellulose) (HPC)

Measured: T/C

NC(=O)c1ccn(C2OC(CO)C(O)C2O)n1 (stereo not drawn)
inactive: dose: 50.0 mg/kg/injection, schedule: Q01DX005 (ip), vehicle: water 105 % of control | dose: 100.0 mg/kg/injection, schedule: Q01DX005 (ip), vehicle: water 102 % of control | dose: 200.0 mg/kg/injection, schedule: Q01DX005 (ip), vehicle: water 102 % of control

NNC(=O)CNc1ccccc1Br
inactive: dose: 50.0 mg/kg/injection, schedule: Q04DX002 (ip), vehicle: Klucel (hydroxypropylcellulose) (HPC) 106 % of control | dose: 100.0 mg/kg/injection, schedule: Q04DX002 (ip), vehicle: Klucel (hydroxypropylcellulose) (HPC) 105 % of control and 110 % of control

COC1OCC(N=[N+]=[N-])C(OS(C)(=O)=O)C1OS(C)(=O)=O (stereo not drawn)
inactive: [1] 94 % of control | [2] 90 % of control | [3] 92 % of control

O=C(CC(=O)Nc1ccccc1)Cc1ccccc1
inactive: [4] 102 % of control | [5] 93 % of control | [6] 88 % of control | [7] 90 % of control | [8] 93 % of control | dose: 400.0 mg/kg/injection, schedule: Q01DX009 (ip), vehicle: saline 93 % of control

CN(C)C1CC1c1ccccc1 (stereo not drawn)
inactive: dose: 6.25 mg/kg/injection, schedule: Q01DX009 (ip), vehicle: saline 106 % of control | [9] 95 % of control | [10] 95 % of control | [11] 100 % of control | [12] 106 % of control | [13] 100 % of control | [14] 100 % of control

O=[N+]([O-])c1cc(/C=N/Nc2nnc(N/N=C/c3ccc(Cl)c([N+](=O)[O-])c3)c3ccccc23)ccc1Cl
inactive: dose: 50.0 mg/kg/injection, schedule: Q01DX001 (ip), vehicle: saline 106 % of control | [4] 96 % of control | [6] 100 % of control | [8] 100 % of control

C(=N\n1cnnc1)/c1ccccc1/C=N/n1cnnc1
inactive: dose: 100.0 mg/kg/injection, schedule: Q01DX009 (ip), vehicle: saline with Tween-80 116 % of control | [1] 103 % of control | dose: 200.0 mg/kg/injection, schedule: Q01DX009 (ip), vehicle: saline with Tween-80 96 % of control | [2] 100 % of control | dose: 400.0 mg/kg/injection, schedule: Q01DX009 (ip), vehicle: saline with Tween-80 89 % of control | [3] 89 % of control

CCCCC(CCCC(=O)O)C(=O)O (stereo not drawn)
inactive: [15] 93 % of control | [16] 96 % of control | [17] 98 % of control

CCOC(=O)CN=NNc1ccc(C(=O)OCC)cc1
inactive: dose: 25.0 mg/kg/injection, schedule: Q01DX009 (ip), vehicle: other 95 % of control | dose: 50.0 mg/kg/injection, schedule: Q01DX009 (ip), vehicle: other 96 % of control | dose: 50.0 mg/kg/injection, schedule: Q04DX003 (ip), vehicle: other 105 % of control | dose: 100.0 mg/kg/injection, schedule: Q01DX001 (ip), vehicle: other 98 % of control | dose: 100.0 mg/kg/injection, schedule: Q04DX003 (ip), vehicle: other 104 % of control | dose: 200.0 mg/kg/injection, schedule: Q01DX001 (ip), vehicle: other 95 % of control

CCOC(=O)CNc1ccc(C(=O)OCC)s1
inactive: dose: 31.25 mg/kg/injection, schedule: Q01DX009 (ip), vehicle: acetone 98 % of control | dose: 62.5 mg/kg/injection, schedule: Q01DX009 (ip), vehicle: acetone 100 % of control | dose: 125.0 mg/kg/injection, schedule: Q01DX009 (ip), vehicle: acetone 96 % of control | dose: 190.0 mg/kg/injection, schedule: Q01DX009 (ip), vehicle: saline 94 % of control | dose: 285.0 mg/kg/injection, schedule: Q01DX009 (ip), vehicle: saline 88 % of control

OCCN(CCO)CCN1c2ccccc2Sc2ccccc21
inactive: dose: 5.0 mg/kg/injection, schedule: Q01DX001 (ip), vehicle: saline 95 % of control | dose: 10.0 mg/kg/injection, schedule: Q01DX001 (ip), vehicle: saline 97 % of control | dose: 20.0 mg/kg/injection, schedule: Q01DX001 (ip), vehicle: saline 92 % of control | dose: 40.0 mg/kg/injection, schedule: Q01DX001 (ip), vehicle: saline 95 % of control | dose: 80.0 mg/kg/injection, schedule: Q01DX001 (ip), vehicle: saline 95 % of control | [4] 96 % of control | [6] 112 % of control

ClC(Cl)(Cl)SN1CCOCC1
inactive: [12] 106 % of control | [5] 95 % of control | [7] 104 % of control

CC(C)(C)OC(=O)N1C2CCC(C2)N1C(=O)OC(C)(C)C
inactive: [15] 100 % of control | [16] 96 % of control | [17] 96 % of control

CN(C)C1c2cccn2-c2ccccc2S(=O)(=O)C1c1ccccc1[N+](=O)[O-] (stereo not drawn)
inactive: [18] 98 % of control | [19] 96 % of control

CC(=O)Nc1ccc2c(c1)C(=Nc1ccccc1)c1ccccc1-2
inactive: [1] 91 % of control | [2] 91 % of control | [3] 91 % of control

C=CCN(C(=O)OCC)P(=O)(OCC)OCC
inactive: [9] 102 % of control | dose: 12.5 mg/kg/injection, schedule: Q04DX003 (ip), vehicle: saline 106 % of control | [10] 112 % of control | [11] 106 % of control | [12] 112 % of control | [13] 105 % of control | [14] 112 % of control | [7] 112 % of control | dose: 200.0 mg/kg/injection, schedule: Q04DX003 (ip), vehicle: saline 98 % of control

CSCCC(NC(=O)NS(=O)(=O)c1ccc(C)cc1)C(=O)O (stereo not drawn)
inactive: [1] 96 % of control | [2] 97 % of control | [3] 100 % of control

[Cu+2].[NH-]CC(=O)O.[NH-]CC(=O)O
inactive: dose: 5.0 mg/kg/injection, schedule: Q04DX003 (ip), vehicle: saline 103 % of control | dose: 10.0 mg/kg/injection, schedule: Q04DX003 (ip), vehicle: saline 99 % of control | dose: 20.0 mg/kg/injection, schedule: Q04DX003 (ip), vehicle: saline 94 % of control

O=C1CC(=O)N2CCCCC2N1 (stereo not drawn)
inactive: dose: 100.0 mg/kg/injection, schedule: Q01DX001 (ip), vehicle: alcohol 106 % of control | dose: 200.0 mg/kg/injection, schedule: Q01DX001 (ip), vehicle: alcohol 103 % of control | dose: 400.0 mg/kg/injection, schedule: Q01DX001 (ip), vehicle: alcohol 110 % of control

O=C1CCC(=O)N1
inactive: [20] 103 % of control | [18] 102 % of control | [19] 100 % of control

CCOC(=O)C(Cc1ccc2ccccc2n1)C(C)=O (stereo not drawn)
inactive: dose: 50.0 mg/kg/injection, schedule: Q01DX009 (ip), vehicle: DMSO 86 % of control | dose: 100.0 mg/kg/injection, schedule: Q01DX009 (ip), vehicle: DMSO 102 % of control

CCOC(=O)C(=O)c1c(C)[nH]c2ccccc12
inactive: dose: 100.0 mg/kg/injection, schedule: Q01DX009 (ip), vehicle: Klucel (hydroxypropylcellulose) (HPC) 96 % of control | [20] 103 % of control | dose: 200.0 mg/kg/injection, schedule: Q01DX009 (ip), vehicle: Klucel (hydroxypropylcellulose) (HPC) 92 % of control | [18] 95 % of control | dose: 400.0 mg/kg/injection, schedule: Q01DX009 (ip), vehicle: Klucel (hydroxypropylcellulose) (HPC) 94 % of control | [19] 97 % of control

COc1cccc(-c2c(C(=O)OC(C)(C)C)cc(O)c3ccc(OC)cc23)c1
inactive: [15] 97 % of control | [16] 96 % of control | [17] 97 % of control

C=CCOc1cccc(C(C)(C)C)c1
inactive: dose: 75.0 mg/kg/injection, schedule: Q04DX003 (ip), vehicle: saline with Tween-80 103 % of control | dose: 150.0 mg/kg/injection, schedule: Q04DX003 (ip), vehicle: saline with Tween-80 101 % of control | dose: 300.0 mg/kg/injection, schedule: Q04DX003 (ip), vehicle: saline with Tween-80 92 % of control
